Our source for the Ki and IC50 values is US9079866B2, “Flap modulators” (JANSSEN PHARMACEUTICA NV, priority 2013, dated 2015).

The target of one experiment is human FLAP (Homo sapiens (Human), UniProt P20292). The experiment can be described thus: FLAP binding assay (HTRF format). The following applies: HTRF format. Put shortly: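 Samples were run in duplicate on each of two plates and the plate results averaged. Read-out is the HTRF signal ratio.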
The subject of experiment [1] is leukotriene pathway in human whole blood (LTB4 levels). Briefly: Human whole blood assay (A23187-stimulated LTB4). Format: cell-based. The following applies: Homo sapiens, read-out: LTB4 IC50 1:1. In outline:
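Blood (heparin) diluted 1:1 RPMI; compound pre-incubation 15 min, 37° Celsius; A23187 7 μg/mL, 30 min, 37° Celsius; plasma LTB4 by commercial kit. IC50 via 4-parameter equation.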

Where [2] appears, read: human FLAP wild type, average of two plates, duplicates.
Where [3] appears, read: human whole blood diluted 1:1 in RPMI, A23187-stimulated LTB4.
Where [4] appears, read: human whole blood diluted 1:1, A23187-stimulated.

Where two headings read alike, the source gives them in different places.

Chain of human FLAP (P20292 whole entry): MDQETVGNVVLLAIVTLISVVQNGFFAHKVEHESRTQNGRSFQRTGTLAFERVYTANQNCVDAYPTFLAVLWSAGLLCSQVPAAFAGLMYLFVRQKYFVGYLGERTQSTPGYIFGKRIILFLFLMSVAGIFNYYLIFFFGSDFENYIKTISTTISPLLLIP

Take `Nc1ccc(-c2ccc(-c3ccccc3S(=O)(=O)NCC3(O)CNC3)cc2F)cn1` [Example 358, 4′-(6-Aminopyridin-3-yl)-3′-fluoro-N-((3-hydroxyazetidin-3-yl)methyl)-[1,1′-biphenyl]-2-sulfonamide]: on human FLAP (setting [2]), the affinity corresponds to a Ki of 55 nM. Also, the concentration for half-maximal inhibition (IC50) (commonly the midpoint of a concentration-inhibition curve) in experiment [1] (setting [3]) is more than 10000 nM.
Turning to `Nc1ccc(-c2ccc(-c3ccccc3S(=O)(=O)N3CCC(CCO)CC3)cc2F)cn1` [Example 359, 2-(1-((4′-(6-Aminopyridin-3-yl)-3′-fluoro-[1,1′-biphenyl]-2-yl)sulfonyl)piperidin-4-yl)ethanol], the Ki (as a rule, a measure of affinity in units of concentration, obtained from inhibition or displacement) on human FLAP (setting [2]) was determined as 4 nM. For the same compound, in experiment [1] (setting [3]), the IC50 came out at 54 nM.
In the same order, the values of `Nc1ccc(-c2ccc(-c3ccccc3S(=O)(=O)N3CCC(O)CC3)cc2F)cn1` [Example 360, 1-((4′-(6-Aminopyridin-3-yl)-3′-fluoro-[1,1′-biphenyl]-2-yl)sulfonyl)piperidin-4-ol] are 22 nM and 67 nM.
In turn, `Nc1ccc(-c2ccc(-c3ccccc3S(=O)(=O)N3CCC(CO)CC3)cc2F)cn1` [Example 361, (1-((4′-(6-Aminopyridin-3-yl)-3′-fluoro-[1,1′-biphenyl]-2-yl)sulfonyl)piperidin-4-yl)methanol] yielded an inhibition constant (Ki) on human FLAP (setting [2]) of 5 nM. The IC50 in experiment [1] (setting [3]) stood at 26 nM.
Consider `C[C@@H](CO)NS(=O)(=O)c1ccccc1-c1ccc(-c2cnc3[nH]ccc3c2)c(F)c1` [Example 362, 3′-Fluoro-N-[(1S)-2-hydroxy-1-methylethyl]-4′-(1H-pyrrolo[2,3-b]pyridin-5-yl)biphenyl-2-sulfonamide], for which the Ki at human FLAP (setting [2]) is 1 nM. Also, the IC50 in experiment [1] (setting [3]) was found to be 47 nM.
`C[C@H](CO)NS(=O)(=O)c1ccccc1-c1ccc(-c2cnc3[nH]ccc3c2)c(F)c1` [Example 363, 3′-Fluoro-N-[(1R)-2-hydroxy-1-methylethyl]-4′-(1H-pyrrolo[2,3-b]pyridin-5-yl)biphenyl-2-sulfonamide]: on human FLAP (setting [2]), affinity was put at a Ki of 1 nM. Also, the IC50 in experiment [1] (setting [3]) is 184 nM.
In the case of `O=C1NCC[C@@H]1NS(=O)(=O)c1ccccc1-c1ccc(-c2cnc3[nH]ccc3c2)c(F)c1` [Example 364, 3′-Fluoro-N-[(3S)-2-oxopyrrolidin-3-yl]-4′-(1H-pyrrolo[2,3-b]pyridin-5-yl)biphenyl-2-sulfonamide], the Ki on human FLAP (setting [2]) worked out at 3 nM. The 50% inhibitory concentration (IC50) in experiment [1] (setting [3]) stood at 150 nM.
For `O=S(=O)(c1ccccc1-c1ccc(-c2cnc3[nH]ccc3c2)c(F)c1)C1CC1` [Example 365, 5-[2′-(Cyclopropylsulfonyl)-3-fluorobiphenyl-4-yl]-1H-pyrrolo[2,3-b]pyridine] the same measures were 3 nM and 60 nM.
On to `O=S(=O)(NCCO)c1ccccc1-c1ccc(-c2cnc3[nH]ccc3c2)c(F)c1` [Example 366, 3′-Fluoro-N-(2-hydroxyethyl)-4′-(1H-pyrrolo[2,3-b]pyridin-5-yl)biphenyl-2-sulfonamide], for which, at human FLAP (setting [2]), affinity was put at a Ki of 1 nM. In experiment [1] (setting [3]), the IC50 is 40 nM.
`CC(C)(C)NS(=O)(=O)c1ccccc1-c1ccc(-c2cnc3[nH]ccc3c2)c(F)c1` [Example 367, N-tert-Butyl-3′-fluoro-4′-(1H-pyrrolo[2,3-b]pyridin-5-yl)biphenyl-2-sulfonamide] came in with a Ki at human FLAP (setting [2]) of 1 nM. For the same compound, the IC50 in experiment [1] (setting [3]) turned out to be 6 nM.
Regarding `CS(=O)(=O)Nc1ccccc1-c1ccc(-c2cnc3[nH]ccc3n2)c(F)c1` [Example 369, N-[3′-Fluoro-4′-(5H-pyrrolo[2,3-b]pyrazin-2-yl)biphenyl-2-yl]methanesulfonamide], affinity at human FLAP (setting [2]) was put at a Ki of 17 nM. In experiment [1] (setting [3]), the concentration for half-maximal inhibition (IC50) worked out at 375 nM.
At human FLAP (setting [2]), `CN(C)S(=O)(=O)c1ccccc1-c1ccc(-c2cnc3[nH]ccc3n2)c(F)c1` [Example 370, 3′-Fluoro-N,N-dimethyl-4′-(5H-pyrrolo[2,3-b]pyrazin-2-yl)biphenyl-2-sulfonamide] had a Ki of 2 nM. Further, the IC50 in experiment [1] (setting [3]) came to 88 nM.
Turning to `CC(C)(C)NS(=O)(=O)c1ccccc1-c1ccc(-c2cnc3[nH]ccc3n2)c(F)c1` [Example 371, N-tert-Butyl-3′-fluoro-4′-(5H-pyrrolo[2,3-b]pyrazin-2-yl)biphenyl-2-sulfonamide], the Ki at human FLAP (setting [2]) was 1 nM. Moreover, the IC50 in experiment [1] (setting [3]) amounted to 15 nM.
On to `O=S(=O)(c1ccccc1-c1ccc(-c2cnc3[nH]ccc3n2)c(F)c1)N1CCCC1` [Example 372, 2-[3-Fluoro-2′-(pyrrolidin-1-ylsulfonyl)biphenyl-4-yl]-5H-pyrrolo[2,3-b]pyrazine], for which the Ki at human FLAP (setting [2]) worked out at 25 nM. In addition, in experiment [1] (setting [3]), the IC50 was 31 nM.
Take `CCN(CC)S(=O)(=O)c1ccccc1-c1ccc(-c2cnc3[nH]ccc3n2)c(F)c1` [Example 373, N,N-Diethyl-3′-fluoro-4′-(5H-pyrrolo[2,3-b]pyrazin-2-yl)biphenyl-2-sulfonamide]: the Ki at human FLAP (setting [2]) came to 1 nM. Also, the IC50 in experiment [1] (setting [3]) worked out at 7 nM.
In turn, `O=S(=O)(c1ccccc1-c1ccc(-c2cnc3[nH]ccc3n2)c(F)c1)N1CCCCC1` [Example 374, 2-[3-Fluoro-2′-(piperidin-1-ylsulfonyl)biphenyl-4-yl]-5H-pyrrolo[2,3-b]pyrazine] showed a Ki on human FLAP (setting [2]) of 1 nM. In experiment [1] (setting [3]), the IC50 came out at 11 nM.
In the case of `O=S(=O)(c1ccccc1-c1ccc(-c2cnc3[nH]ccc3n2)c(F)c1)N1CCOCC1` [Example 375, 2-[3-Fluoro-2′-(morpholin-4-ylsulfonyl)biphenyl-4-yl]-5H-pyrrolo[2,3-b]pyrazine], the Ki at human FLAP (setting [2]) was 2 nM. Also, the IC50 in experiment [1] (setting [3]) is 31 nM.
In turn, `CS(=O)(=O)c1ccccc1-c1ccc(-c2cnc3[nH]ccc3n2)c(F)c1` [Example 377, 2-[3-Fluoro-2′-(methylsulfonyl)biphenyl-4-yl]-5H-pyrrolo[2,3-b]pyrazine] registered a Ki at human FLAP (setting [2]) of 33 nM. Moreover, the IC50 in experiment [1] (setting [3]) was 979 nM.
At human FLAP (setting [2]), `CNS(=O)(=O)c1ccccc1-c1ccc(-c2cnc3[nH]ccc3n2)c(F)c1` [Example 379, 3′-Fluoro-N-methyl-4′-(5H-pyrrolo[2,3-b]pyrazin-2-yl)biphenyl-2-sulfonamide] had an inhibition constant Ki of 1 nM. In addition, the IC50 in experiment [1] (setting [3]) is 33 nM.
As to `NC1CCN(S(=O)(=O)c2ccccc2-c2ccc(-c3cnc4[nH]ccc4n3)c(F)c2)CC1` [Example 381, 1-{[3′-Fluoro-4′-(5H-pyrrolo[2,3-b]pyrazin-2-yl)biphenyl-2-yl]sulfonyl}piperidin-4-amine], on human FLAP (setting [2]), the Ki turned out to be 5 nM. Also, the IC50 in experiment [1] (setting [3]) was 141 nM.
Compound `CS(=O)(=O)c1ccccc1-c1ccc(-c2cnc3c(c2)OCCN3)c(F)c1` [Example 385, 7-[3-Fluoro-2′-(methylsulfonyl)biphenyl-4-yl]-3,4-dihydro-2H-pyrido[3,2-b][1,4]oxazine] yielded a Ki at human FLAP (setting [2]) of 42 nM. Further, in experiment [1] (setting [3]), the IC50 is 1080 nM.
`O=S(=O)(c1ccccc1-c1ccc(-c2cnc3c(c2)OCCN3)c(F)c1)N1CCCCC1` [Example 386, 7-[3-Fluoro-2′-(piperidin-1-ylsulfonyl)biphenyl-4-yl]-3,4-dihydro-2H-pyrido[3,2-b][1,4]oxazine] registered a Ki on human FLAP (setting [2]) of 2 nM. The IC50 in experiment [1] (setting [3]) amounted to 77 nM.
On human FLAP (setting [2]), `NS(=O)(=O)c1ccccc1-c1ccc(-c2cnc3c(c2)OCCN3)c(F)c1` [Example 387, 4′-(3,4-Dihydro-2H-pyrido[3,2-b][1,4]oxazin-7-yl)-3′-fluorobiphenyl-2-sulfonamide] yielded a Ki of 8 nM. Further, the IC50 in experiment [1] (setting [3]) is 253 nM.
In the same order, the values of `C[C@@H](CO)NS(=O)(=O)c1ccccc1-c1ccc(-c2cnc3c(c2)OCCN3)c(F)c1` [Example 388, 4′-(3,4-Dihydro-2H-pyrido[3,2-b][1,4]oxazin-7-yl)-3′-fluoro-N-[(1S)-2-hydroxy-1-methylethyl]biphenyl-2-sulfonamide] are 2 nM and 37 nM.
With `CCN(CC)S(=O)(=O)c1ccccc1-c1ccc(-c2cnc3c(c2)OCCN3)c(F)c1` [Example 391, 4′-(3,4-Dihydro-2H-pyrido[3,2-b][1,4]oxazin-7-yl)-N,N-diethyl-3′-fluorobiphenyl-2-sulfonamide], affinity on human FLAP (setting [2]) was put at a Ki of 2 nM. Also, in experiment [1] (setting [3]), the IC50 came out at 56 nM.
Consider `O=S1(=O)CCN(S(=O)(=O)c2ccccc2-c2ccc(-c3cnc4c(c3)OCCN4)c(F)c2)CC1` [Example 392, 7-{2′-[(1,1-Dioxidothiomorpholin-4-yl)sulfonyl]-3-fluorobiphenyl-4-yl}-3,4-dihydro-2H-pyrido[3,2-b][1,4]oxazine], for which the Ki on human FLAP (setting [2]) came out at 1 nM. Moreover, the IC50 in experiment [1] (setting [3]) worked out at 16 nM.
On human FLAP (setting [2]), `CC(C)(C)NS(=O)(=O)c1ccccc1-c1ccc(-c2cnc3c(c2)OCCN3)c(F)c1` [Example 393, N-tert-Butyl-4′-(3,4-dihydro-2H-pyrido[3,2-b][1,4]oxazin-7-yl)-3′-fluorobiphenyl-2-sulfonamide] registered a Ki of 1 nM. Further, the IC50 in experiment [1] (setting [3]) came out at 12 nM.
The compound `CC(C)S(=O)(=O)c1ncccc1-c1ccc(-c2cnc(N)cn2)c(F)c1` [Example 395, 5-(2-Fluoro-4-{2-[(1-methylethyl)sulfonyl]pyridin-3-yl}phenyl)pyrazin-2-amine] had a Ki at human FLAP (wild type FLAP) of 9 nM. Further, the IC50 in experiment [1] (setting [4]) came out at 32 nM.
As to `CC(C)Sc1ncccc1-c1ccc(-c2cnc(N)cn2)c(F)c1` [Example 396, 5-(2-Fluoro-4-{2-[(1-methylethyl)sulfanyl]pyridin-3-yl}phenyl)pyrazin-2-amine], at human FLAP (wild type FLAP), the Ki is 8 nM. For the same compound, the IC50 in experiment [1] (setting [4]) is 137 nM.
As for `CC(C)COc1ncccc1-c1ccc(-c2cnc3[nH]ccc3n2)c(F)c1` [Example 398, 2-{2-Fluoro-4-[2-(2-methylpropoxy)pyridin-3-yl]phenyl}-5H-pyrrolo[2,3-b]pyrazine], the affinity at human FLAP (wild type FLAP) corresponds to a Ki of 34 nM. The IC50 in experiment [1] (setting [4]) was 1130 nM.
`CC(C)Oc1ncccc1-c1ccc(-c2cnc3[nH]ccc3n2)c(F)c1` [Example 399, 2-{2-Fluoro-4-[2-(1-methylethoxy)pyridin-3-yl]phenyl}-5H-pyrrolo[2,3-b]pyrazine] gave a Ki at human FLAP (wild type FLAP) of 28 nM. In addition, the IC50 in experiment [1] (setting [4]) stood at 358 nM.
